From patent publication US10188756B2, “Imaging histone deacetylases with a radiotracer using positron emission tomography” (THE GENERAL HOSPITAL CORPORATION, priority 2013, dated 2019)

Columns and labels:
HDAC1 = HDAC1 (Homo sapiens (Human), UniProt Q13547); experiment: HDAC inhibition assay; settings: read-out: IC50 HDAC1
Procedure: (§2) All histone deacetylases were purchased from BPS Bioscience. […] All the other reagents were purchased from Sigma-Aldrich. Caliper EZ reader II system was used to collect all data. […] Purified HDACs were incubated with 2 μM carboxyfluorescein (FAM)-labeled acetylated or trifluoroacetylated peptide substrate (Broad Substrate A and B respectively) and test compound for 60 minutes at room temperature, in HDAC assay buffer that contained 50 mM HEPES (pH 7.4), 100 mM KCl, 0.01% BSA and 0.001% Tween-20. […] Substrate and product were separated electrophoretically and fluorescence intensity in the substrate and product peaks was determined and analyzed by Labchip EZ Reader. The reactions were performed in duplicate for each sample. IC50 values were automatically calculated by Origin 8 using 4 Parameter Logistic Model. The percent inhibition was plotted against the compound concentration, and the IC50 value was determined from the logistic dose-response curve fitting by Origin 8.0 software.

HDAC3 = HDAC3 (Homo sapiens (Human), UniProt O15379); experiment: HDAC inhibition assay; settings: read-out: IC50 HDAC3
Procedure: as §2

HDAC2 = HDAC2 (Homo sapiens (Human), UniProt Q92769); experiment: HDAC inhibition assay; type: biochemical
Source text: (§1) All histone deacetylases were purchased from BPS Bioscience. […] All the other reagents were purchased from Sigma-Aldrich.

HDAC7 = HDAC7 (Homo sapiens (Human), UniProt Q8WUI4); experiment: HDAC inhibition assay; settings: read-out: IC50 HDAC7
Procedure: as §2

HDAC5 = HDAC5 (Homo sapiens (Human), UniProt Q9UQL6); experiment: HDAC inhibition assay; settings: read-out: IC50 HDAC5
Procedure: as §2

HDAC9 = HDAC9 (Homo sapiens (Human), UniProt Q9UKV0); experiment: HDAC inhibition assay; settings: read-out: IC50 HDAC9
Procedure: as §2

HDAC4 = HDAC4 (Homo sapiens (Human), UniProt P56524); experiment: HDAC inhibition assay; settings: read-out: IC50 HDAC4
Procedure: as §2

HDAC6 = HDAC6 (Homo sapiens (Human), UniProt Q9UBN7); experiment: HDAC inhibition assay; type: biochemical
Source text: as §1

HDAC8 = HDAC8 (Homo sapiens (Human), UniProt Q9BY41); experiment: HDAC inhibition assay; type: biochemical
Source text: as §1

histone deacetylases = experiment: Baboon PET/MR imaging with [11C]CN133; type: in vivo, baboon (Papio anubis); settings: for VT (Ichese MAI), CN147 blocked / VT (Logan Plot), CN147 blocked: [11C]CN133 VT after CN147 0.5 mg/kg intravenous; for VT (Ichese MAI), % Difference / VT (Logan Plot), % Difference: baseline vs CN147 blocked
Procedure: A female Papio Anubis baboon, deprived of food for 12 hours prior to the study, was administered intramuscular ketamine (10 mg/kg) and intubated. For maintenance of anesthesia throughout the study, the baboon was provided 1%-4% isoflurane (Forane) in a mixture of medical oxygen and nitrogen. The baboon was catheterized antecubitally for radiotracer injection and a radial arterial line was placed for metabolite analysis. MR-PET images were acquired in a BiographmMR scanner (Siemens, Munich, Germany), and PET compatible 8-channel coil arrays for non-human primate brain imaging with a PET resolution of 5 mm and field of view of 59.4 cm and 25.8 cm (transaxial and axial, respectively). Dynamic PET image acquisition was initiated followed by administration of the radiotracer in a homogenous solution of 10% ethanol and 90% isotonic saline. An […] sequence began after 30 minutes of the baseline scan for anatomic coregistration. […] Both scans were carried out in the same animal on the same day, separated by 2.5 hours. In both scans, 4-5 mCi of [^11C]CN133 was administered to the baboon. Dynamic data from the PET scans were recorded in list mode and corrected for attenuation. Baboon data were reconstructed using a 3D-OSEM method resulting in a full width at half-maximum resolution of 4 mm.
Volumes of interest (VOIs) were drawn manually as spheres in brain regions guided by high resolution MR structural images and summed PET data, with a radius no less than 4 mm. A common VOI mask was applied to both baboon scans. Time-activity curves (TACs) were exported in terms of decay corrected activity per unit volume at specified time points with gradually increasing intervals. The TACs were expressed as percent injected dose per unit volume for analysis.
Arterial samples collected during imaging from the baboon were centrifuged to obtain plasma, which was then removed and placed in an automated gamma counter that was calibrated to the PET scanner. Metabolite analysis was conducted on a custom automated robot fitted with Phenomenex SPE Strata-X 500 mg solid phase extraction cartridges that were primed with ethanol (2 mL) and deionized water (20 mL). Protein precipitation was achieved by addition of plasma (300 μL) to acetonitrile (300 μL), which was centrifuged for 1 minute to obtain protein-free plasma (PFP). 300 μL of PFP/acetonitrile solution was diluted into deionized water (3 mL), loaded onto the C18 cartridge, and removed of polar metabolites with 100% water. Next, a series of extractions were performed using water and acetonitrile in quantities: 95:5, 90:10, 85:15, 80:20, 70:30, 60:40, 30:70 and 100% acetonitrile at a volume of 4 mL. A control experiment was performed before metabolite analysis to determine the retention of the parent compound by injection of a small amount of [^11C]CN133 onto a test series of extraction cartridges. Each sample was counted in a WIZARD2 Automatic Gamma Counter to determine the presence of radiolabeled metabolites.
CN147 blocks ˜40% of [^11C]CN133 binding in NHP whole brain and in cerebellum. Plasma-normalized data were evaluated by volume of interest analysis (VOI) at the whole brain level and at level of the cerebellum. VOI data were then applied to distribution volume (VT) data analysis by two graphical methods using PMOD software, tabulated in Tables A and B below. Logan Plot and Ichese MAI methods were clarified from previous NHP imaging analyses to provide an accurate VT estimate (+/− standard error) from data beginning 35 min after injection of radiotracer (t*=35 min) until the end of the scan (t=80min).

HDAC7, sequence (Q8WUI4 whole entry): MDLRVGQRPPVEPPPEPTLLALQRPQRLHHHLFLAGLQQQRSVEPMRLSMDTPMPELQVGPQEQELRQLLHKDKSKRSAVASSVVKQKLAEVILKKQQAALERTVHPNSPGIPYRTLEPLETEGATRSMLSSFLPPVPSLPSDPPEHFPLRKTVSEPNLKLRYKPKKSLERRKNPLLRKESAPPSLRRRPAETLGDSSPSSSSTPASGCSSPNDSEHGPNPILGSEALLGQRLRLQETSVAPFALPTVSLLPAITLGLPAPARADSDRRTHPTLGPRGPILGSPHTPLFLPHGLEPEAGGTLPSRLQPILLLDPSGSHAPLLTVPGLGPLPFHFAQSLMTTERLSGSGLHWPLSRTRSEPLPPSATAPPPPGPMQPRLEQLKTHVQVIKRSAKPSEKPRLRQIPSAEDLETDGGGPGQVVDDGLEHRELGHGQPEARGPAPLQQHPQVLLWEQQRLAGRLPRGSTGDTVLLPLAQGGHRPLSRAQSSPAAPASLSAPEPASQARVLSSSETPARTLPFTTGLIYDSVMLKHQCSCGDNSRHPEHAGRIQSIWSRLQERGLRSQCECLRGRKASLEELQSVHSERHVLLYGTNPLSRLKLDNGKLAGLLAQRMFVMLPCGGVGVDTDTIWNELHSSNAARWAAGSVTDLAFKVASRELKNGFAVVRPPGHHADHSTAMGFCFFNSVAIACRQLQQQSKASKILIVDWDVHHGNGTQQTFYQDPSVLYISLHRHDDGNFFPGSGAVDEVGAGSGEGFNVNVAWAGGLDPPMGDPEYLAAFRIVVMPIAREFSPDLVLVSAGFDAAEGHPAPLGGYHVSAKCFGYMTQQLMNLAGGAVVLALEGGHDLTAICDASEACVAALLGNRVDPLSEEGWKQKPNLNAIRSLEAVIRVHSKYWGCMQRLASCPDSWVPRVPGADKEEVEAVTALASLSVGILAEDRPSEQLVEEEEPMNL
HDAC3, sequence (O15379 whole entry): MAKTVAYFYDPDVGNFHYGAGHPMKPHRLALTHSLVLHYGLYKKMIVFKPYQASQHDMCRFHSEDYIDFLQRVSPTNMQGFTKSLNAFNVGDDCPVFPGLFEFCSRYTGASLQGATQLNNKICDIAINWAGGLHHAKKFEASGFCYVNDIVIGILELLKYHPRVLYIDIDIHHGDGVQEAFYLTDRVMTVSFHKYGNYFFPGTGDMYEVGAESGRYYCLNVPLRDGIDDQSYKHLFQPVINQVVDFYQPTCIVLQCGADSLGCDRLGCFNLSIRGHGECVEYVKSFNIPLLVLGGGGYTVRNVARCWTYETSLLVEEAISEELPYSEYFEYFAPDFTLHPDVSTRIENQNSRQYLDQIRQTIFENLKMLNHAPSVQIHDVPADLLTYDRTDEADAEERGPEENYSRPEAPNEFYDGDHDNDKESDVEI
HDAC3, sequence (Q9Y618 395-489 partner): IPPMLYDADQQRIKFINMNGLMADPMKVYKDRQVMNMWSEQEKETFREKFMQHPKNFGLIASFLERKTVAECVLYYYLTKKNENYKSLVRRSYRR
HDAC5, sequence (Q9UQL6 whole entry): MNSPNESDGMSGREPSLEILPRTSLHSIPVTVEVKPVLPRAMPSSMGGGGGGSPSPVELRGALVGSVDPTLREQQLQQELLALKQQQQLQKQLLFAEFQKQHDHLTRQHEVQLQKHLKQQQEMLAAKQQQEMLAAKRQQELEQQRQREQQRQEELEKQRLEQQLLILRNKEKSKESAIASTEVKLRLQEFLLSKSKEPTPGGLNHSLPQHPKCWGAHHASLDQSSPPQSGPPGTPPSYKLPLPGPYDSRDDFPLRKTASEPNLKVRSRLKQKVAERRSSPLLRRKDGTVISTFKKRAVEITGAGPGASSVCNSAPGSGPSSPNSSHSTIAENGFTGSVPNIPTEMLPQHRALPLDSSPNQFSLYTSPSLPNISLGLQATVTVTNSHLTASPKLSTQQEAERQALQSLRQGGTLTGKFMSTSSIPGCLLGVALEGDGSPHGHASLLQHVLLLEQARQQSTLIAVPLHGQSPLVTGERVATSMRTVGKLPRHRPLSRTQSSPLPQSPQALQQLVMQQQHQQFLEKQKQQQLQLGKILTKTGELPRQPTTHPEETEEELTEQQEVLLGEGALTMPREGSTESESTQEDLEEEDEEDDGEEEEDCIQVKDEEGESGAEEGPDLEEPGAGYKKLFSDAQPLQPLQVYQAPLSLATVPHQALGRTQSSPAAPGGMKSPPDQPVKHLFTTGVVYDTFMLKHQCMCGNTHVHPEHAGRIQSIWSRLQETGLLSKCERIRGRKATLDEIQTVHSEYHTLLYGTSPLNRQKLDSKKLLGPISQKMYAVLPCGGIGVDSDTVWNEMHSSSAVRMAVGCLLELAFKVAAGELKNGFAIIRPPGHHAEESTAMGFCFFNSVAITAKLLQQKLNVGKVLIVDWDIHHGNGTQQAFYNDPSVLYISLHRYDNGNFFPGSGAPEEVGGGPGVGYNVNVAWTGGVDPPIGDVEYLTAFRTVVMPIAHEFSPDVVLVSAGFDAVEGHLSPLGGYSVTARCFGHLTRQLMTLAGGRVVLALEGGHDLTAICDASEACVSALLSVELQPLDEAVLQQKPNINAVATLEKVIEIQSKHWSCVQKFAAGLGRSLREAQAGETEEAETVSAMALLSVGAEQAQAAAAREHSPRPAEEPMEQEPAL
HDAC6, sequence (Q9UBN7 whole entry): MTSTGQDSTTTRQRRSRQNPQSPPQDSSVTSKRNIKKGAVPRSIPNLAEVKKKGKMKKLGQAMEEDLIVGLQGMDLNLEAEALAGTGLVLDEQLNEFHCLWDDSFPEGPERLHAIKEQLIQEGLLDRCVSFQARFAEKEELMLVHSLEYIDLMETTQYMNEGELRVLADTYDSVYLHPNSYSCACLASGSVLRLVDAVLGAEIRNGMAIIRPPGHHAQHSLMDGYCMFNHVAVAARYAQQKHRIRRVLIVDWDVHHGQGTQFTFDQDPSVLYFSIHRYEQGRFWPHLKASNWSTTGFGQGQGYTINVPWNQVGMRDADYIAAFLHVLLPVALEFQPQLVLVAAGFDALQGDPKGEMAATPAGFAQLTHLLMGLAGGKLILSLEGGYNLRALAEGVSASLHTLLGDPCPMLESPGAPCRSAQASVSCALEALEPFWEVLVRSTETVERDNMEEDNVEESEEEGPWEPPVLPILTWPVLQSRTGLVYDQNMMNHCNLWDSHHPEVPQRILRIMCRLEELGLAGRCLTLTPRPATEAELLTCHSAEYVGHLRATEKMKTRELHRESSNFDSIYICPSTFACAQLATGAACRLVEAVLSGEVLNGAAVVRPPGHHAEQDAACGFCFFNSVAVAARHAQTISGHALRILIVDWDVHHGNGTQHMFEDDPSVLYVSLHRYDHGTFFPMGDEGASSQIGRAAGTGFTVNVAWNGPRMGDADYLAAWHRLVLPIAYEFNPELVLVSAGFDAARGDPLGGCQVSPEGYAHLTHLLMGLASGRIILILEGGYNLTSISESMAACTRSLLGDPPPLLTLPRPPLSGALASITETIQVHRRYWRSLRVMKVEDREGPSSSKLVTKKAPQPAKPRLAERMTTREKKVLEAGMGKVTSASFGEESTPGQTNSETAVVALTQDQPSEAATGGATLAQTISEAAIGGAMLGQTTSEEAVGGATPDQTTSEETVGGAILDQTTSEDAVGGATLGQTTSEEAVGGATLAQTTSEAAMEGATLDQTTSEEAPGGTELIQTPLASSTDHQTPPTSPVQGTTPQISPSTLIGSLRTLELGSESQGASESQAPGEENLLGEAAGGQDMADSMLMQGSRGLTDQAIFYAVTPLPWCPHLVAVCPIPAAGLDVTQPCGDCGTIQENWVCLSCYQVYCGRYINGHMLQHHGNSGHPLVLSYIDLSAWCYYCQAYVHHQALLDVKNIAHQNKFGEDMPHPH
HDAC8, sequence (Q9BY41 whole entry): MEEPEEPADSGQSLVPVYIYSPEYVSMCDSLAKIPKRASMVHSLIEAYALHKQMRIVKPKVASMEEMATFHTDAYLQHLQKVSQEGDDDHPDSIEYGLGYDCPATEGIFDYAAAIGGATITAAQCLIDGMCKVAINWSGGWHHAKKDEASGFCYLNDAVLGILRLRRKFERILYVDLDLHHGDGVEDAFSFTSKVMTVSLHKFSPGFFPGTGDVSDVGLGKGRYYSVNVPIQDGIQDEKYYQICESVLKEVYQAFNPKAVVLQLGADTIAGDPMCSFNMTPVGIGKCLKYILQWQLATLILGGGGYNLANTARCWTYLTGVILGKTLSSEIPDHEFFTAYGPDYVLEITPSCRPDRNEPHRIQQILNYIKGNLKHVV
HDAC2, sequence (Q92769 whole entry): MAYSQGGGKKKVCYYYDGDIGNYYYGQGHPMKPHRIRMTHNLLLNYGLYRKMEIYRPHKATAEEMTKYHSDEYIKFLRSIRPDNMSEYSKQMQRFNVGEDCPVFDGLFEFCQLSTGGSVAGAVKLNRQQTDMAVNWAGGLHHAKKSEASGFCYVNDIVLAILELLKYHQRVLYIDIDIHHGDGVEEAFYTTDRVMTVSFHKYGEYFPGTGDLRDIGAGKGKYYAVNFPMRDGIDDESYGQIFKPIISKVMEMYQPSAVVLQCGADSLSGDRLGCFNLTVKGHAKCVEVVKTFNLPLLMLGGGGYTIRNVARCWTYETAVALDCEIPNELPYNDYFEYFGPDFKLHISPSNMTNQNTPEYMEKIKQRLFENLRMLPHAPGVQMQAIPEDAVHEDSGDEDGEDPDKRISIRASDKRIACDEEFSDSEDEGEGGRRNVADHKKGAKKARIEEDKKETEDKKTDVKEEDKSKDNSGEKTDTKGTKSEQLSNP

Row | SMILES | IC50 (HDAC1) | IC50 (HDAC3) | IC50 (HDAC2) | IC50 (HDAC7) | IC50 (HDAC5) | IC50 (HDAC9) | IC50 (HDAC4) | IC50 (HDAC6) | IC50 (HDAC8) | other results
1 | CNc1ccc(C(=O)NCCCCC(=O)NO)cc1 [CN51] | 106 nM | 84.5 nM | 477 nM |  |  |  |  |  |  | 
2 | CN(C)c1ccc(C(=O)NCCCCCCC(=O)NO)cc1 [CN52] | 7.3 nM | 4.3 nM | 20.7 nM |  |  |  |  |  |  | 
3 | CNc1ccc(C(=O)NCCCCCCC(=O)NO)cc1 [CN53] | 6.1 nM | 5.7 nM | 11.9 nM |  |  |  |  |  |  | 
4 | CN(C)CCOc1ccc2c(c1)C(c1ccc(C(=O)NO)cc1)=Nc1ccccc1O2 [CN56] | 270 nM | 97.8 nM | 160 nM |  |  |  |  |  |  | 
5 | O=C(/C=C/c1ccccc1)NO [CN86] | 133 nM | 151 nM | 470 nM | > 20000 nM | > 10000 nM | > 50000 nM | > 10000 nM | 21.7 nM | 725 nM | 
6 | CN(Cc1ccc2c(c1)CCC(C(=O)NO)=C2)CC12CC3CC(CC(C3)C1)C2 [CN141] | 55.8 nM | 97.9 nM |  | 5510 nM | 207 nM | > 10000 nM | 389 nM | 14.4 nM | 2400 nM | 
7 | CN(C)Cc1ccc(/C=C/C(=O)NO)cc1 [CN145] | > 50000 nM | 9240 nM |  |  | > 70000 nM |  |  | 6820 nM |  | 
8 | O=C(/C=C/c1ccc(CN(CCF)CC23CC4CC(CC(C4)C2)C3)cc1)NO [CN146] | 221 nM | 470 nM |  | > 30000 nM | 5350 nM | > 40000 nM | > 10000 nM | 308 nM | > 30000 nM | 
9 | CN(Cc1ccc(/C=C/C(=O)Nc2ccccc2N)cc1)CC12CC3CC(CC(C3)C1)C2 [CN147] |  |  |  |  |  |  |  |  |  | VT (Ichese MAI), CN147 blocked (histone deacetylases; Cerebellum VOI): 11.68 ± 8.42; VT (Logan Plot), CN147 blocked (histone deacetylases; Cerebellum VOI): 11.59 ± 3.37; VT (Ichese MAI), % Difference (histone deacetylases; Cerebellum VOI): 39.95%; VT (Logan Plot), % Difference (histone deacetylases; Cerebellum VOI): 39.89%; blocking of [11C]CN133 binding (histone deacetylases; NHP whole brain and cerebellum): ~40%; VT (Ichese MAI), CN147 blocked (histone deacetylases; Whole Brain VOI): 8.92 ± 9.26; VT (Logan Plot), CN147 blocked (histone deacetylases; Whole Brain VOI): 8.85 ± 3.06; VT (Ichese MAI), % Difference (histone deacetylases; Whole Brain VOI): 39.11%; VT (Logan Plot), % Difference (histone deacetylases; Whole Brain VOI): 38.80%
10 | CCCCN(Cc1ccc(C(=O)NO)cc1)C(=O)Nc1ccccc1OC [CN165] | 96.7 nM | 143 nM | 307 nM |  |  |  |  | 2.13 nM | 493 nM | 
11 | CN(Cc1ccc(/C=C/C(=O)NO)cc1F)CC1CCCCC1 [CN167] | 5.43 nM | 4.83 nM | 40 nM |  |  |  |  | 18.7 nM | 1810 nM | 

More lines, main results first:

Row | IC50 (HDAC1) | IC50 (HDAC3) | IC50 (HDAC2) | IC50 (HDAC7) | IC50 (HDAC5) | IC50 (HDAC9) | IC50 (HDAC4) | IC50 (HDAC6) | IC50 (HDAC8) | SMILES | other results
12 | 5 nM | 3.4 nM | 32 nM |  | > 10000 nM | > 10000 nM | 500 nM | 5 nM | 150 nM | CN(CCc1ccccc1)S(=O)(=O)c1cccc(/C=C/C(=O)NO)c1 [CN89] | 
13 | 1.2 nM | 1.1 nM | 4 nM |  | > 20000 nM | 1470 nM | > 10000 nM | 2.3 nM | > 70000 nM | COc1ccc2c(c1)C(=O)N(CCCCCC(=O)NO)c1ccccc1S2 [CN112] | 
14 | 0.95 nM | 1.2 nM | 7.8 nM | > 20000 nM |  | > 10000 nM |  | 1.7 nM | > 10000 nM | O=C(/C=C/c1ccc(CNCC23CC4CC(CC(C4)C2)C3)cc1)NO [CN132] | 
15 | 1.8 nM | 4.3 nM |  | > 20000 nM | 196 nM | > 10000 nM | 927 nM | 9.7 nM | 9600 nM | O=C(/C=C/c1ccc(CNCC2CCCCC2)cc1)NO [CN143] | 
16 | 0.78 nM | 0.76 nM |  | > 50000 nM | 4750 nM | > 50000 nM | 20300 nM | 11.7 nM | > 50000 nM | CN(Cc1ccc(/C=C/C(=O)NO)cc1F)CC12CC3CC(CC(C3)C1)C2 [CN149] | 
17 | 1.64 nM | 0.54 nM | 14.2 nM |  |  |  |  | 11.7 nM | 725 nM | O=C(/C=C/c1ccc(CNCC2CCCCC2)c(F)c1)NO [CN166] | 
